Patent publication US20040209273A1, “Plant stress-regulated genes” (priority 2001, published 2004)

What was measured:
[1] = test system: tobacco leaf discs; experiment: Ion leakage (solute conductance) from tobacco leaf discs floated on methyl viologen solutions; set-up: species or system Nicotiana tabacum
Protocol: Nicotiana tabacum cv. Petit Havana SR1 plants were grown in a controlled environment chamber (Weiss Technik, Lindenstruth, DE) under 100 μmol/m^2/s light intensity (photosynthetically active radiation), 16 hours light/8 hours dark regime, relative humidity of 70% and constant temperature of 24° C. The most expanded leaves (11-12 cm long×7-8 cm wide) from five week old plants were used for experiments with methyl viologen.
Leaf discs (1 cm in diameter) were punched with a cork-bore from the interveinal part of the leaf. Three leaf discs, each originating from different plants, were floated with the abaxial side up on 12 ml of methyl viologen solution in nanopure water or water solely in the case of control. Treatments were performed in controlled environment chambers, under the same conditions as for growth, except as otherwise indicated. Leaf discs for RNA extraction were drained on paper, rapidly frozen in liquid nitrogen and stored at −70° C. Ion leakage from the leaf discs was measured as conductivity of the solution using a conductivity meter (Consort, Turnhout, BE)
As a first step in studying adaptive responses to oxidative stress in tobacco, we wanted to establish an experimental system in which low doses of oxidant would induce adaptation to higher doses of the same compound. MV, a redox-active compound that enhances superoxide radical (O2 ? ) formation mainly in chloroplasts, was used as an oxidant. In order to determine MV concentrations suited for the induction of adaptation and for the subsequent oxidative stress treatment, sensitivity of tobacco to MV was first determined. Leaf discs were floated on solutions with different concentrations of MV and ion leakage was monitored by measuring the solute conductance. If not scavenged, superoxide generated by MV is converted through redox-reactions into other active oxygen species (AOS) such as hydroxyl radicals that interact with biological molecules and cause oxidative damage (Halliwell and Gutteridge, 1989). Peroxidation of membrane lipids results in loss of membrane integrity that is reflected by enhanced cellular ion leakage. […] These concentrations thus seemed most suitable for inducing adaptation to MV.
To test whether exposure to sublethal amounts of MV enhances tolerance to higher, normally toxic amounts of this compound, tobacco leaf discs were floated on solutions with less than 0.2 μM MV and subsequently transferred to solutions within the molar range of 0.2-2 μM. Increase in tolerance was assessed by measuring the solute conductance. Leaf discs pretreated with water were taken as nonadapted controls. […]

[2] = test system: tobacco leaf disc mRNA; experiment: Differential mRNA display of MV-pretreated versus water-pretreated leaf discs; set-up: species or system Nicotiana tabacum; conditions: 0.1 μM MV for 17 hours; estimated from sequencing data
Protocol: Total RNA was treated with DNaseI prior to RT-PCR according to the manufacturer's instructions (Life Technologies, Paisley, UK). Alternatively, up to 20 μg of total RNA was incubated with 5 U DNaseI, 18 U Recombinant Ribonuclease Inhibitor (Promega Corp., Madison, Wis., USA), 1 mM DTT in 80 μl of 10 mM Tris-Cl, pH 8.3, 50 mMKCl and 1.5 mM MgCl2 for 30 minutes at 37° C. RNA was extracted with phenol/CHCl3 (3:1), ethanol precipitated and dissolved in diethyl pyrocarbonate-treated water. mRNA differential display was performed with the RNA map™ kit (Gene Hunter Corp., Nashville, Tenn., USA), AmliTaq DNA polymerase (Perkin-Elmer, Branchburg, N.J., USA) and [^33P] dATP (0.2 μl/20 μl PCR reaction of 111 000 GBq/mmol; Isotopchim, Ganagobie-Peyruis, FR). 3.5 μl of each PCR reaction was mixed with 2 μl of loading dye and denatured at 95° C. for five minutes prior to loading onto 6% DNA sequencing gel. […]
In order to identify which genes other than those encoding antioxidant enzymes would show altered mRNA levels during oxidative stress adaptation, reference samples placed in water for 17 hours, or samples pretreated with 0.1 μM MV for 17 hours (adapted leaf discs), were compared by differential mRNA display. […] Expression of 16 genes was further analyzed by Northern analysis with RNA from an independent experiment. […]

[3] = test system: A. thaliana plants; experiment: Growth of Arabidopsis seedlings on plates containing methyl viologen; type: in vivo, Arabidopsis thaliana; conditions: 2 μM MV in ½ MS, 1% sucrose; three to four weeks; transformed lines and C24 control
Protocol: Eighty plants of an F2-progeny of the transgenic line WV4 (construct pWRKY-VP16-pGSJ780A) were grown on MS+Kanamycine for two and a half weeks. Fifteen kanamycine-resistant seedlings were transferred to plates containing ½ MS, 1% sucrose and 2 μM methyl viologen (paraquat) or to plates containing ½ MS, 1% sucrose for the controls.
Wild-type Arabidopsis plants were treated in a similar way (except for selection on Kanamycine).
Performance of plants was followed and pictures were taken after approximately three weeks.
Segregating populations (F2) of A. thaliana plants (C 24) transformed with WRKY11 under control of the 35S promoter (35S—WRKY11) or with WRKY11 fused to the VP16 activation domain under control of the 35S promoter (35S—WRKY11-VP16) were grown on MS media with kanamycine. Approximately three-week-old seedlings resistant to kanamycine from 3:1 segregating lines (WV4 and WV9 WRKY11-VP16 transformed lines) were transferred to the solid media containing ½ MS salts, 1% sucrose and 2 μM methyl viologen (MV) or on plates without MV. As control plants, untransformed A. thaliana plants were used (C24). After three to four weeks, phenotypic differences were assessed.

[4] = test system: Gpx, SodCc and differential-display genes (mRNA); experiment: Northern analysis of gene expression in leaf discs during MV pretreatment and treatment; set-up: species or system Nicotiana tabacum
Protocol: Total RNA was extracted from frozen leaf discs using TRIzol™ Reagent (Life Technologies, Paisley, UK) according to the manufacturer's instructions. RNA samples were treated prior to electrophoresis and resolved on 1% agarose gel as described by Shaul et al. (1996). The RNA was blotted on nylon membrane (Hybond-N, Amersham International plc., Buckinghamshire, UK or Qiabrane, Qiagen GmbH, Hilden, DE) by capillary blotting (Maniatis et al., 1982). RNA was fixed to the membrane by cross-linking at 150 mJ/cm^2. To check the quality of RNA prior to hybridization, membranes were incubated for 15 minutes in 5% acetic acid and stained for five minutes in 0.04% methylene blue in 0.5 M sodium acetate (pH 5.2), and rinsed with water. After the staining and quality check, membranes were destained in 0.1×SSC (Maniatis et al., 1982) containing 0.5% SDS (w/v). Membranes were hybridized at 65° C. in 50% formamide, 5×SSC, 0.5% SDS and 10% dextran sulphate. ^32P-labeled RNA probes corresponding to the cDNA fragments of GPx (Criqui et al., 1992), SodCc (PSOD 3-5′ fragment; Tsang et al., 1991), SodB (pSOD 2-5′ fragment; Tsang et al., 1991), Cat1 (pCat1A; Willekens et al., 1994), and N. tabacum actin (pRVA12; Aventis Crop Science, BE) were generated by the Riboprobe® System (Promega Corp., Madison, Wis., USA). RNA probes corresponding to cDNA fragments isolated by differential display and cloned into pGEM®-T vector (Promega Corp., Madison, Wis., USA) were generated according to the same protocol. Membranes were washed at 65° C. for 15 minutes each in 3×SSC (Maniatis et al., 1982), 1×SSC and 0.1×SSC (stringent washing) containing 0.5% SDS (w/v). Membranes were exposed to the Storage Phosphor Screen and scanned with the Phosphorlmager 445 SI (Molecular Dynamics Inc., Sunnyvale, Calif., USA). Membranes were reused after stripping of the probe in 0.1×SSC at 85° C. Removal of the probe was checked by autoradiography.
mRNA levels of several antioxidant genes were tested by Northern analysis during the pretreatment and the treatment. […]

C[n+]1ccc(-c2cc[n+](C)cc2)cc1 [MV, methyl viologen]
leaf damage measured as solute conductance versus applied dose ([1]; 0.2-2 μM MV): clearly correlated with the applied dose of MV | visible damage of leaf discs ([1]; concentrations lower than 0.2 μM MV, after 42 hours of incubation): no visible damage | increase in ion leakage from the leaf discs in comparison with water-treated controls ([1]; concentrations lower than 0.2 μM MV, up to 42 hours of incubation): very little increase in ion leakage | protection against MV compared to water-pretreated control samples (solute conductance) ([1]; pretreated with 0.1 μM MV for 17 hours, then treated with 1 μM MV for 11 hours, mean): 40% | total number of genes with altered expression after MV pretreatment [2]: ~170 | growth of plants on plates containing MV [3]: retarded | expression of all Table 2 genes except DIOX ([4]; after 12 hours of the pretreatment with 0.1 μM MV): induced | expression of all Table 2 genes except DIOX ([4]; during the treatment with 1 μM MV, induction started within the first three hours): further induced | Gpx and SodCc mRNA level ([4]; pretreatment with 0.1 μM MV): persistent increase
